This is an account of results in paper PMC12442081, “Combating Fuel Biocontamination: Tailored Antimicrobial Peptides and an Innovative Delivery Strategy” (ACS Applied Bio Materials, 2025).

Series [1] relates to Bacillus licheniformis (BL) ATCC 14580. Type of series: cell-based. The settings on record: ATCC 14580. A digest of the protocol:
(§1)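 Peptides were serially diluted and incubated overnight at 37 °C with an equal volume of mid-log bacteria at 5 × 10^5 CFU/mL, previously grown in LB broth. Growth inhibition was read on a plate reader, and mean MIC from triplicates was reported.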

Series [2] relates to Kocuria rosea (KR) ATCC 186. The series is classed as cell-based. A digest of the protocol:
as §1

Series [3] deals with Macrococcus caseolyticus (MC) ATCC 13548. The series is classed as cell-based. A digest of the protocol: as §1
The subject of series [4] is Micrococcus yunnanensis (MY) ATCC 12698. The series is classed as cell-based. The method, boiled down:
as §1

Series [5] concerns Pseudomonas aeruginosa (PA) ATCC 39327. Type of series: cell-based. To be noted: ATCC 39327. A digest of the protocol: as §1
The test system of series [6] is Sphingomonas paucimobilis (SP). The series is classed as cell-based. The method, boiled down: as §1
The subject of series [7] is Hormoconis resinae (HR) ATCC 20267. The series is classed as cell-based. As for the experimental part: All of the bacterial species were grown overnight at 37 °C in LB broth. 10^7 CFU/mL of cells were resuspended in fresh culture and grown until the mid log phase. , The bacterial cells were adjusted to a concentration of 5 × 10^5 CFU/mL to quantify the MIC. Equal volumes of the respective bacterial cultures were incubated with the serially diluted peptides in 96-well microtiter plate and incubated overnight at 37 °C in ambient air. Microorganisms without peptides were treated as the positive control, while uninoculated broth was used as the negative control. The MIC was taken as the lowest peptide concentration at which observable bacteria growth was inhibited, as measured by a microplate reader (Biotek Synergy H1 microplate reader). Experiments were performed in triplicates, and the mean MIC values were determined. A similar study was performed to understand the effect of peptide purity, i.e., ranging from 70 to 95%, on the peptide MIC.
The same experimental procedures that were conducted for the antibacterial assay were used to determine the MIC of the peptides against the fungal strain, H. resinae.

Series [8] in a line: HPLC retention time as a function of peptide hydrophobicity. Type of series: physicochemical. The settings on record: chromatographic, Polaris 5 C18-A reverse phase, 0.1% TFA water / 0.1% TFA acetonitrile gradient, 30 min, 300 μM peptide. The method, boiled down:
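Reverse-phase C18 HPLC used water and acetonitrile, each with 0.1% (v/v) TFA, under a constant gradient run for 30 min after injection. Samples were 300 μM peptide in acetonitrile–water (1:4).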

Series [9] has as its system Bacillus licheniformis (BL). The series can be described thus: Effectiveness of peptides on spiked fuel samples (aqueous layer). Type of series: cell-based. Also noted: key: (+) =1 (implying peptide activity in fuel environment); (X) = 0 (implying no activity in the desired range, indicated by microbial proliferation); Fuel x = -1(implying no activity in fuel environment). To be noted: initial screening in spiked fuel. A digest of the protocol:
(§2)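 Peptides are applied at MIC to the aqueous layer of microbially spiked fuel–BH medium mixtures (1:1 v/v). Incubation runs aerobically at 30 °C for up to 30 days. Growth is tracked by plating samples from both phases on agar at weekly intervals.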

Series [10] concerns Dermacoccus nishinomiyaensis (DN). The description is as above. Type of series: cell-based. To be noted: initial screening in spiked fuel. Also noted: key: (+) =1 (implying peptide activity in fuel environment); (X) = 0 (implying no activity in the desired range, indicated by microbial proliferation); Fuel x = -1(implying no activity in fuel environment). The method, boiled down:
as §2

In a further series the test system is Hormoconis resinae (HR). The series is described as above. To be noted: initial screening in spiked fuel. Set-up: key: (+) =1 (implying peptide activity in fuel environment); (X) = 0 (implying no activity in the desired range, indicated by microbial proliferation); Fuel x = -1(implying no activity in fuel environment). The series is classed as cell-based. The method, boiled down: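 Viability read-out: aqueous- and fuel-layer aliquots plated on agar at days 7, 14, 21, 30. Setup: sterile fuel/BH medium 1:1 (v/v), inoculum in aqueous phase, peptide dosed at MIC into aqueous layer, aerobic 30 °C, 30 d.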

The subject of a further series is Kocuria rosea (KR). The series is described as above. The series is classed as cell-based. Also noted: key: (+) =1 (implying peptide activity in fuel environment); (X) = 0 (implying no activity in the desired range, indicated by microbial proliferation); Fuel x = -1(implying no activity in fuel environment). To be noted: initial screening in spiked fuel. A digest of the protocol:
as §2

Series [11] relates to Macrococcus caseolyticus (MC). Described as above. Type of series: cell-based. Also noted: key: (+) =1 (implying peptide activity in fuel environment); (X) = 0 (implying no activity in the desired range, indicated by microbial proliferation); Fuel x = -1(implying no activity in fuel environment). The settings on record: initial screening in spiked fuel. A digest of the protocol: as §2

The test system of series [12] is Micrococcus yunnanensis (MY). Described as above. Also noted: key: (+) =1 (implying peptide activity in fuel environment); (X) = 0 (implying no activity in the desired range, indicated by microbial proliferation); Fuel x = -1(implying no activity in fuel environment). Type of series: cell-based. To be noted: initial screening in spiked fuel. A digest of the protocol:
as §2

In series [13] the test system is Pseudomonas aeruginosa (PA). Described as above. Type of series: cell-based. Set-up: key: (+) =1 (implying peptide activity in fuel environment); (X) = 0 (implying no activity in the desired range, indicated by microbial proliferation); Fuel x = -1(implying no activity in fuel environment). To be noted: initial screening in spiked fuel. A digest of the protocol: as §2

In a further series the test system is Roseomonas mucosa (RM). The description is as above. The series is classed as cell-based. Set-up: key: (+) =1 (implying peptide activity in fuel environment); (X) = 0 (implying no activity in the desired range, indicated by microbial proliferation); Fuel x = -1(implying no activity in fuel environment). The settings on record: initial screening in spiked fuel. The method, boiled down:
as §2

In series [14] the test system is Sphingomonas paucimobilis (SP). The series is described as above. The series is classed as cell-based. Also noted: key: (+) =1 (implying peptide activity in fuel environment); (X) = 0 (implying no activity in the desired range, indicated by microbial proliferation); Fuel x = -1(implying no activity in fuel environment). To be noted: initial screening in spiked fuel. The method, boiled down:
as §2

Series [15] relates to microbial clusters MY, KR, DN, MC, BL, RM, SP, PA, HR. The series can be described thus: Broad-spectrum activity score (in-house scoring matrix). To be noted: sum over 9 microbial clusters: (+) = 1, (X) = 0, Fuel x = -1. The method, boiled down:
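Each peptide is scored per microbial cluster from its MIC/efficacy with fuel co-incubation: +1 = active in the fuel environment, 0 = no activity in the desired range (microbial proliferation), −1 = no activity in the fuel environment. The score is built from these per-cluster points.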

Series [16] has as its system Roseomonas mucosa (RM) ATCC BAA-692. Type of series: cell-based. The method, boiled down:
as §1

The test system of series [17] is Dermacoccus nishinomiyaensis (DN) ATCC 29093. Type of series: cell-based. A digest of the protocol: as §1

Where no end group is shown, it is not given here.

In the case of `CC[C@H](C)[C@H](N)C(=O)N[C@H](C(=O)N1CCC[C@H]1C(=O)N[C@@H](Cc1c[nH]c2ccccc12)C(=O)N[C@@H](CCCCN)C(=O)N[C@@H](Cc1c[nH]c2ccccc12)C(=O)N1CCC[C@H]1C(=O)N[C@@H](Cc1c[nH]c2ccccc12)C(=O)N[C@@H](Cc1c[nH]c2ccccc12)C(=O)N1CCC[C@H]1C(=O)N[C@@H](Cc1c[nH]c2ccccc12)C(=O)N[C@@H](CCCNC(=N)N)C(=O)N[C@@H](CCCNC(=N)N)C(=O)O)[C@@H](C)CC` [P13], the MIC (usually the smallest concentration in the dilution series that meets the test's criterion for growth inhibition) in series [1] is 3.9 µM; in series [2], 3.9 µM; in [3], 3.9 µM; in series [4], 0.9 µM; in series [5] it was 7.8 µM; in series [6], 0.9 µM. Also, in [7], the MIC is 7.8 µM. Further, in series [8], the “R t, retention time of peptide on HPLC column as a function of peptide hydrophobicity” value (shortened to “R t, retention time of peptide”) came out at 12.084 min. The “activity considering MIC value/efficacy upon fuel co-incubation” value is given as “+” in series [9]; “X” in series [10]; “Fuel x” with Hormoconis resinae (HR); “Fuel x” in the series with Kocuria rosea (KR); “+” in series [11]; “+” in series [12]. Besides, the “activity considering MIC value/efficacy upon fuel co-incubation” value is reported as “X” in series [13], “X” in the series on Roseomonas mucosa (RM) and “+” in series [14]. Also, the Score in [15] was determined as 2.
Regarding ILPWKWPFWPWRR [P7], the MIC was 0.9 µM in series [1]; 0.9 µM in series [4]; 31.25 µM in series [5]; 0.9 µM in [16]; 0.9 µM in series [6]; 1.95 µM in [7]. The “R t, retention time of peptide” value in series [8] is on record as 12.156 min. The “activity considering MIC value/efficacy upon fuel co-incubation” value is recorded as “+” in series [9]; “X” in [10]; “Fuel x” in the series with Hormoconis resinae (HR); “X” with Kocuria rosea (KR); “X” in series [11]; “+” in series [12]. Further, the “activity considering MIC value/efficacy upon fuel co-incubation” value is “X” in series [13], “+” in the series with Roseomonas mucosa (RM) and “+” in series [14]. Also, the Score in [15] worked out at 3.
In the case of ILPWKWPWWPWRK [P2], the MIC in series [1] amounted to 0.9 µM; in [17], 0.9 µM; in series [2], 0.9 µM; in series [3], 1.9 µM; in series [16], 0.9 µM; in series [6], 0.9 µM. Moreover, in series [8], the “R t, retention time of peptide” value stood at 12.624 min. For the same compound, the “activity considering MIC value/efficacy upon fuel co-incubation” value in series [9] is “+”; in [10], “Fuel x”; in the series on Hormoconis resinae (HR) it was “X”; in the series with Kocuria rosea (KR), “+”; in [11], “+”; in series [12] it was “X”. Moreover, the “activity considering MIC value/efficacy upon fuel co-incubation” value is listed as “X” in series [13], “Fuel x” with Roseomonas mucosa (RM) and “+” in series [14]. Besides, the Score in series [15] is 2.
